The numbers were not newly measured in patent US8618066B1 (priority 2003, dated 2013), which cites them from elsewhere.

The series has as its system Gram+ & Gram− bacteria, fungi, virus, mammalian/cancer cells. The note with it: cited from earlier work.
The mark [1] stands for this setting: classes of organisms/cells the peptide is active against.

Entries after “also recorded” stand apart in the source; their conditions may differ. Where two headings read alike, the source gives them in different places. No end group written: not given here.

Regarding “SEQ ID No. 27: synthetic antifungal peptide, Table 1 (WRF)”, the Activity result is “Fungi”.
As to “HNP-4 Defensin: peptide, source Human (VCSCRLVFCRRTELRVGNCLIGGVSFTYCCTRV; HNP-4 Defensin; listed as Homo sapiens)”, the Activity result is listed as “Gram+ & Gram−, Fungi”.
In the case of “BMAP-27: peptide, source Bovine (GRFKRFRKKFKKLFKKLSPVIPLLHLG; BMAP-27; listed as Bos taurus)”, the Activity result is “Gram+ & Gram−, Fungi”.
Consider “Peptide PGQ: peptide, source African clawed frog (GVLSNVIGYLKKLGTGALNAVLKQ; Peptide PGQ; listed as Xenopus laevis)”, for which the Activity entry was “Gram+ & Gram−, Fungi”.
“Opistoporin 1: peptide, source African yellow leg scorpion (GKVWDWIKSTAKKLWNSEPVKELKNTALNAAKNLVAEKIGATPS; Opistoporin 1; listed as Opistophthalmus carinatus)”: under setting [1], the Activity result is on record as “Gram+ & Gram−, Fungi,; also recorded: Mammalian cells”.
Turning to “HNP-6 Defensin: peptide, source Human (STRAFTCHCRRSCYSTEYSYGTCTVMGINHRFCCL; HNP-6 Defensin; listed as Homo sapiens)”, the Activity result is “Gram+ & Gram−, Fungi”.
As for “Ranalexin: peptide, source Bull frog (FLGGLIKIVPAMICAVTKKC; Ranalexin; listed as Rana catesbeiana)”, the Activity result is on record as “Gram+ & Gram−, Fungi”.
As for “Gomesin: peptide, source Synthetic (QCRRLCYKQRCVTYCRGR; Synthetic Gomesin)”, under setting [1], the Activity result was “Gram+ & Gram−, Fungi,; also recorded: Mammalian cells”.
As for “Pseudo-hevein (Minor hevin): peptide, source Para rubber tree (EQCGRQAGGKLCPNNLCCSQYGWCGSSDDYCSPSKNCQSNCKGGG; Pseudo-hevein (Minor hevein); listed as Hevea brasiliensis)”, the Activity result is “Fungi”.
Turning to “Dhvar5: peptide, source Synthesis (LLLFLLKKRKKRKY; Synthesis dhvar5)”, under setting [1], the Activity entry is “Gram+ & Gram−, Fungi”.
In the case of “SEQ ID No. 36: synthetic antifungal peptide, Table 1 (KRKLRF)”, the Activity entry is reported as “Fungi”.
Regarding “SEQ ID No. 42: synthetic antifungal peptide, Table 1 (RFKLRF)”, the Activity entry was “Fungi”.
Regarding “Protegrin 3: peptide, source Pig (RGGGLCYCRRRFCVCVGR; Protegrin 3; listed as Sus scrofa)”, the Activity result is listed as “Gram+ & Gram−, Virus, Fungi”.
With “SEQ ID No. 183: synthetic antifungal peptide, Table 1 (YMPQGPKLQLWH)”, the Activity entry was “Fungi”.
On to “AC-AMP2: peptide, source Amaranthus caudatus (VGECVRGRCPSGMCCSQFGYCGKGPKYCGR; ends and bridges not checked; cysteine pairing not given here; listed as Amaranthus caudatus)”, for which the Activity entry is “Gram+, Fungi”.
Turning to “SEQ ID No. 35: synthetic antifungal peptide, Table 1 (IFKLRF)”, the Activity entry is “Fungi”.
With “P-18: antimicrobial peptide, Table 1 (KWKLFKKIPKFLHLAKKF; listed as Penaeus vannamei)”, the Activity entry is “Gram+ & Gram−, Fungi, Cancer”.
“MUC7 20- Mer: peptide, source Human (LAHQKPFIRKSYKCLHKRCR; MUC7 20-Mer; listed as Homo sapiens)”: the Activity entry is “Gram+ & Gram−, Fungi”.
As for “Termicin: peptide, source Pseudacanthotermes spiniger (ACNFQSCWATCQAQHSIYFRRAFCDRSQCKCVFVRG; Pseudacanthotermes spiniger; Termicin)”, the Activity entry was “Gram+, Fungi”.
Consider “SEQ ID No. 175: synthetic antifungal peptide, Table 1 (WTFRYC)”, for which the Activity entry is recorded as “Fungi”.
For the substance “SEQ ID No. 187: synthetic antifungal peptide, Table 1 (MPSNTQTSNSSMGVNGYSYCVVM; listed as Cryphonectria parasitica)”, the Activity entry is given as “Fungi”.
On to “Skin peptide tyrosine-tyrosine: peptide, source Two-colored leaf frog”, for which the Activity result is “Gram+ & Gram−, Fungi”.
For “HNP-5 Defensin: peptide, source Human (QARATCYCRTGRCATRESLSGVCEISGRLYRLCCR; HNP-5 Defensin; listed as Homo sapiens)”, the Activity entry was “Gram+ & Gram−, Fungi”.
For “SEQ ID No. 37: synthetic antifungal peptide, Table 1 (LFKLRF)”, the Activity result is on record as “Fungi”.
As to “SEQ ID No. 45: synthetic antifungal peptide, Table 1 (TFKLRF)”, the Activity result is reported as “Fungi”.
Turning to “SEQ ID No. 195: synthetic antifungal peptide, Table 1 (WCQQKGQPCW; listed as Fusarium graminearum)”, the Activity result was “Fungi”.
As to “Protegrin 5: peptide, source Pig (RGGRLCYCRPRFCVCVGR; Protegrin 5; listed as Sus scrofa)”, the Activity result is listed as “Gram+ & Gram−, Virus, Fungi”.
Consider “Lactoferricin B: peptide, source Bovine (FKCRRWQWRMKKLGAPSITCVRRAF; Lactoferricin B; listed as Bos taurus)”, for which the Activity result is reported as “Gram+ & Gram−, Virus, Fungi,”.
For the substance “SEQ ID No. 191: synthetic antifungal peptide, Table 1 (WCLFHGEGCW; listed as Cryphonectria parasitica)”, the Activity entry was “Fungi”.
With “SEQ ID No. 196: synthetic antifungal peptide, Table 1 (WCTWKGQPCW; listed as Fusarium graminearum)”, the Activity result was “Fungi”.
“Histone H2A (fragment): source Rainbow trout (AERVGAGAPVYL; Oncorhynchus mykiss; Histone H2A (Fragment))”: the Activity result is reported as “Gram+, Fungi”.
As for “SEQ ID No. 190: synthetic antifungal peptide, Table 1 (WHWLQLKPGQPMY; listed as Saccharomyces cerevisiae)”, the Activity entry is on record as “Fungi”.
Turning to “SEQ ID No. 34: synthetic antifungal peptide, Table 1 (HFKLRF)”, the Activity result is listed as “Fungi”.
As to “Ib-AMP4: peptide, source Impatiens balsamina (GRRCCGWGPGRRYCRRWC; Ib-antimicrobial peptidic agent4; listed as Impatiens balsamina)”, the Activity entry is “Gram+ Fungi”.
On to “Tricholongin: peptide, source Trichoderma longibrachiatum (AGFAAQAAASLAPVAAQQL; Tricholongin; listed as Trichoderma longibrachiatum)”, for which the Activity result under setting [1] was “Gram+ & Gram−, Fungi”.
Consider “Androctonin: peptide, source Androctonus Australis (RSVCRQIKICRRRGGCYYKCTNRPY; listed as Androctonus australis)”, for which the Activity result under setting [1] is given as “Gram+ & Gram−, Fungi”.
“Hepcidin 20: peptide, source Human (ICIFCCGCCHRSKCGMCCKT; Hepcidin 20; listed as Homo sapiens)”: the Activity entry was “Fungi”.
For the substance “Brevinin-1BB: peptide, source Rio Grande leopard frog (FLPAIAGMAAKFLPKIFCAISKKC; Brevinin-1BB; listed as Rana berlandieri)”, the Activity result is on record as “Gram+ & Gram−, Fungi”.
In the case of “Anti-fungal protein 1 (pafp-s): source Phytolacca Americana (AGCIKNGGRCNASAGPPYCCSSYCFQIAGQSYGVCKNR; listed as Phytolacca americana)”, the Activity entry was “Fungi”.
With “Spingerin: peptide, source Pseudacanthotermes spiniger (HVDKKVADKVLLLKQLRIMRLLTRL; Pseudacanthotermas spiniger; Spingerin)”, the Activity entry is reported as “Gram+ & Gram−, Fungi”.
For the substance “Tracheal antimicrobial peptide: peptide, source Bovine (NPVSCVRNKGICVPIRCPGSMKQIGTCVGRAVKCCRKK; Tracheal antimicrobial peptide; listed as Bos taurus)”, the Activity entry is listed as “Gram+ & Gram−, Fungi”.
In the case of “Ib-AMP3: peptide, source Impatiens balsamina (RHRCCAWGPGRKYCKRWC; Ib-antimicrobial peptidic agent3; listed as Impatiens balsamina)”, the Activity entry is “Gram+, Fungi”.
On to “Ginkbilobin: source Ginkgo (ANTAFVSSAHNTQKIPAGAPFNRNLRAMLADLRQNAAFAG; Ginkbilobin; listed as Ginkgo biloba)”, for which the Activity result is “Gram+ & Gram−, Virus, Fungi”.
For “Histatin 5: peptide, source Human (DSHAKRHHGYKRKFHEKHHSHRGY; Histatin 5; listed as Homo sapiens)”, the Activity entry was “Gram+ & Gram−, Fungi”.
With “Indolicidin: peptide, source Bos Taurus (ILPWKWPWWPWRR; listed as Bos taurus)”, the Activity entry was “Gram+ & Gram−, Virus, Fungi”.
In the case of “SEQ ID No. 186: synthetic antifungal peptide, Table 1 (MPSTAASTRVPQTTMNFNGYCVVM; listed as Neurospora crassa)”, the Activity entry is “Fungi”.
As to “Lingual antimicrobial peptide: peptide, source Bovine (GFTQGVRNSQSCRRNKGICVPIRCPGSMRQIGTCLGAQVKCCRRK; Lingual antimicrobial peptide; listed as Bos taurus)”, the Activity entry is “Gram+ & Gram−, Fungi”.
Turning to “Melanotropin alpha (Alpha-MSH): peptide, source Bovine (SYSMEHFRWGKPV; Melanotropin alpha (Alpha-MSH); listed as Bos taurus)”, the Activity entry is given as “Gram+, Fungi”.
Take “Antimicrobial peptide 1: peptide, source Common ice plant (AKCIKNGKGCREDQGPPFCCSGFCYRQVGWARGYCKNR; Antimicrobial peptide 1; listed as Mesembryanthemum crystallinum)”: the Activity result is “Gram+ & Gram−, Fungi”.
